Assay results reported in US9175305B2, “Mutant hydroxyphenylpyruvate dioxygenase polypeptides and methods of use” (Syngenta Participations AG, priority 2009, dated 2015).
pKd: −log10 of the molar value.

Assays:
[1] = target: HPPD SEQ ID NO:19 (Avena sativa, UniProt A0ACD5V6K6, DEL109-109/I285A); experiment: biochemical; type: binding
Method: On rates (governed by an association rate constant, kon) for the formation of the enzyme: inhibitor complexes, EI and off rates (governed by a dissociation rate constant, koff) were determined by methods known in the art and essentially as described in Hawkes et al. (2001) Proc. Bright. Crop. Prot. Conf. Weeds, 2:563-568 and in PCT Patent App. Pub. No. WO 02/46387).
For example, on rates were measured by, at zero time, adding ˜60 pmoles HPPD to 50 mM BisTrisPropane buffer at pH7.0 and at 25° C. containing 25 mM Na ascorbate, 4 μg/ml bovine catalase (Sigma, St. Louis, Mo.) and an excess (˜300 pmoles) of ^14C inhibitor in a total assay volume of 425 μl and, at various time points (0-180 s), quenching the radiolabel binding reaction by addition and rapid mixing of 100 μl ‘cold’ 1 mM structure A. Protein samples quenched at different times were then exchanged into 50 mM BisTrisPropane buffer at pH 7.0 containing 0.1M KCl by rapid chromatography down a NAP5 G25 Sephadex column (GE Healthcare Ltd, Buckinghamshire UK) and the amount of ^14C bound to protein fractions quantified in Optiphase scintillant using a Tri-Carb 2900TR scintillation counter (Perkin Elmer, Wellesley, Mass.). The data were fit according to the scheme below in order to derive the value of the apparent second order rate constant, k2, governing the association rate of enzyme and radiolabelled inhibitor. A range of enzyme and inhibitor concentrations were used. […] Further example methods are described in PCT Patent App. Pub. No. WO 02/46387.
Off rates (k1 in the scheme below) were derived from exchange rate studies where either the test inhibitor, I, or its exchange partner, J were radiolabelled and the data fit according to the scheme below. As noted in Hawkes et al. (2001) Proc. Bright. Crop. Prot. Conf.
After 30 minutes the exchange reaction was initiated with addition of 100 μl 1 mM ‘cold’ structure A with thorough mixing, and, immediately, 150 μl were withdrawn and loaded onto a NAP5 column, the protein exchanged into 50 mM BisTrisPropane buffer at pH 7.0 containing 0.1M KCl by rapid (<2 min) chromatography down a NAP5 G25 Sephadex column (GE Healthcare Ltd, Buckinghamshire UK) and the amount of ^14C bound to protein measured by Optiphase scintillant using a Tri-Carb 2900TR scintillation counter (Perkin Elmer, Wellesley, Mass.). Further aliquots were removed and measured in the same way at various times over minutes or hours as required in order to determine the exchange kinetics.
After 30 minutes the reaction vessel was transferred to ice. After a further 10 minutes at ice temperature the exchange reaction was initiated by addition of 100 μl 1 mM Structure A, with thorough mixing, and 150 μl was withdrawn and loaded onto a NAP5 column in a cold room at ˜5-8° C. in order to quantify the amount of radiolabel remaining bound to the protein at various time from the start of exchange at ice temperature.
Off rates (k1) of HPPD inhibitors that are not available radiolabelled or that present other measurement problems (for example high levels of background non-specific protein-binding which can be measured as radiolabel binding that persists in the presence of high concentrations of ‘cold’ inhibitor) may be measured indirectly. […] Exemplary methods are also described in PCT Patent App. Pub. No. WO 02/46387.

[2] = test system: soybean event 1 (vector 15764) expressing SEQ ID NO:14; experiment: herbicide spray test on soybean events; type: in vivo; settings: C 400 g/ha; event 1/SEQ#14; V2 growth stage; 14 DAT; average of n=7
Excerpt: (§1) Each data point represents the average damage score from n=7 replicates.
(§2) These events were used to compare the performance of five 17147 events. Four of these, SF, S8, S7 and S3 had not been preselected for tolerance level (other than to confirm resistance, non-chimerical nature and the presence of the gene) while the remaining event, T0, had been preselected as the most resistant out of five 17147 events in a preliminary field test.
(§3) Plants were in 4×4×4 inch plastic pots and grown under a 15/9 hour light regime (daylight supplemented by artificial light in greenhouses) at a minimum night-time temperature of 18° C. and maximum daytime temperature of 27° C. Soil was regular VBRC mix (1:1 mixture of Vero field soil and Fafard Mix II) where Vero field soil is 98% sand and 2% clay. […] Spray volume was 150 L/ha and the damage scores reflect assessments at 14 DAT.

[3] = test system: soybean event 2 (vector 15764) expressing SEQ ID NO:14; experiment: herbicide spray test on soybean events; type: in vivo; settings: C 400 g/ha; event 2/SEQ#14; V2 growth stage; 14 DAT; average of n=7
Excerpt: as §1, §2, §3

[4] = test system: soybean event S3 (vector 17147) expressing SEQ ID NO:24; experiment: herbicide spray test on soybean events; type: in vivo; settings: C 400 g/ha; event S3/SEQ#24; V2 growth stage; 14 DAT; average of n=7
Excerpt: as §1, §2, §3

[5] = test system: soybean event S7 (vector 17147) expressing SEQ ID NO:24; experiment: herbicide spray test on soybean events; type: in vivo; settings: C 400 g/ha; event S7/SEQ#24; V2 growth stage; 14 DAT; average of n=7
Excerpt: as §1, §2, §3

[6] = test system: soybean event S8 (vector 17147) expressing SEQ ID NO:24; experiment: herbicide spray test on soybean events; type: in vivo; settings: C 400 g/ha; event S8/SEQ#24; V2 growth stage; 14 DAT; average of n=7
Excerpt: as §1, §2, §3

[7] = test system: soybean event SF (vector 17147) expressing SEQ ID NO:24; experiment: herbicide spray test on soybean events; type: in vivo; settings: C 400 g/ha; event SF/SEQ#24; V2 growth stage; 14 DAT; average of n=7
Excerpt: as §1, §2, §3

[8] = test system: soybean event T0 (vector 17147) expressing SEQ ID NO:24; experiment: herbicide spray test on soybean events; type: in vivo; settings: C 400 g/ha; event T0/SEQ#24; V2 growth stage; 14 DAT; average of n=7
Excerpt: as §1, §2, §3

[9] = test system: Jack w/t; experiment: herbicide spray test on soybean; type: in vivo; settings: C 400 g/ha, V2 growth stage, 14 DAT, average of n=7
Method: as §1, §3

Chain of HPPD SEQ ID NO:19 (A0ACD5V6K6 entry or part of it DEL109-109/I285A): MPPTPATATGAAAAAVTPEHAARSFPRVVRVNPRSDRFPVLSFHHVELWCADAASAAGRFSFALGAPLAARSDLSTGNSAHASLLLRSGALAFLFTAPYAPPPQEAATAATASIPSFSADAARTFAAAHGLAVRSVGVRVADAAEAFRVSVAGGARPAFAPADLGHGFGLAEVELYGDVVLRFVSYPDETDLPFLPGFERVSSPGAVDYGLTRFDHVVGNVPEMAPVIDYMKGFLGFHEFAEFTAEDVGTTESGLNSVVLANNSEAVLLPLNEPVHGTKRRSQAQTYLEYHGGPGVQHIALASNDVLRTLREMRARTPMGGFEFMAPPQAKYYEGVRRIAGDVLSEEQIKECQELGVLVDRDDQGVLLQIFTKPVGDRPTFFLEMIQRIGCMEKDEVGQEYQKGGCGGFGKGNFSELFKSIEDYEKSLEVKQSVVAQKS

COCCOCc1nc(C(F)(F)F)ccc1C(=O)C1C(=O)C2CCC(C2)C1=O (centres unmarked) [Structure C]
pKd [1]: 8.05
koff ([1]; read-out: koff (k1)): 6.6e-05 s⁻¹
kon ([1]; read-out: kon (k2)): 7500 M⁻¹ s⁻¹
% dam. [2]: 42.1%
% dam. [3]: 52.9%
% dam. [4]: 62.1%
% dam. [5]: 45%
% dam. [6]: 68.6%
% dam. [7]: 98.6%
% dam. [8]: 45%
% dam. [9]: 82.1%
